Results reported in patent US20040081682A1, “Transdermal system (tds) that contain inhibitors of phosphodiesterase lV” (priority 2000, published 2004).

Assay: Pharmacokinetic study of humans (transdermal TDS E vs. intravenous infusion, serum RIA)
Conditions: human, in vivo
Experimental: Pharmacokinetic Study of Humans
The above-described formulation E was tested on twelve healthy males at the age of 20 to 42 years with normal body weight, whereby for 72 hours in each case, three transdermal formulations of 10 cm^2 each with 5 mg of (R)-(−)-5-(4-methoxyphenyl-3-propoxy)-5-methyl-2-oxazolidinone were simultaneously applied on the lower back area. After 72 hours, the transdermal formulation was removed and within one week of washing-out time, the concentration of the active ingredient in the serum was determined per RIA. The measured serum levels of the active ingredient produced an average transdermal substance flow of 0.49±0.7 μg/cm^2/h, at maximum serum levels of 0.88 ng/ml in the time interval of 29±10 hours.
Based on the pronounced plateau phase, which was achieved after the administration of the TDS, at the time of the reduction of TDS after three days, it was still possible to measure mesopram concentrations in the range of 65±18% of the maximum levels. […] The AUC values as well as other pharmacokinetic parameters are found in Table 3. In a comparison test with intravenous administration of a total of 0.2 mg of (R)-(−)-5-(4-methoxyphenyl-3-propoxy)-5-methyl-2-oxazolidinone within one hour, a multiple of higher serum levels was measured that was […]. One hour after the infusion was completed, the mean serum levels dropped to 1.15±0.44 ng·ml·l. Later on, the serum levels dropped off four hours after completion of the infusion to achieve a level of 0.39±0.17 ng·ml·l, after 8 hours 0.17±0.09 ng·ml·l, and after 24 hours 0.08±0.08 ng·ml·l. The essential pharmacokinetic parameters after i.v. administration of mesopram are depicted in Tab. 3. The comparison test with infusion was performed on the same test subjects as the transdermal administration. […]

## (R)-(−)-5-(4-methoxyphenyl-3-propoxy)-5-methyl-2-oxazolidinone [mesopram]
  Cl (clearance): 5.1 ± 1.8
  f (absolute bioavailability): 100%
  ιη (half-life): 2.5 ± 0.9 h
